Test results from ChEMBL document CHEMBL1133559, “4-Aryl-2,4-dioxobutanoic acid inhibitors of HIV-1 integrase and viral replication in cells” (J Med Chem, 2000).
Several values for one entry are separate records, joined by “and”; a condition that tells them apart may be missing. Equal values may be shown once.

Experiments:
[1] = target: T1, Human immunodeficiency virus type 1 integrase (Human immunodeficiency virus 1, UniProt Q7ZJM1)
Description: Inhibition of recombinant HIV-1 Integrase in strand transfer enzyme assay.

[2] = tested on: Human immunodeficiency virus 1; assay: In vitro inhibition of (HIV-1 IIIB) replication.; type: functional; details: for IC95: Human immunodeficiency virus 1, read-out: CIC95
[3] = target: T1, Human immunodeficiency virus type 1 integrase; assay: Inhibitory activity was determined against recombinant HIV-1 Integrase (0.1 uM) in strand transfer enzyme assay

T1 sequence (Q7ZJM1 whole entry): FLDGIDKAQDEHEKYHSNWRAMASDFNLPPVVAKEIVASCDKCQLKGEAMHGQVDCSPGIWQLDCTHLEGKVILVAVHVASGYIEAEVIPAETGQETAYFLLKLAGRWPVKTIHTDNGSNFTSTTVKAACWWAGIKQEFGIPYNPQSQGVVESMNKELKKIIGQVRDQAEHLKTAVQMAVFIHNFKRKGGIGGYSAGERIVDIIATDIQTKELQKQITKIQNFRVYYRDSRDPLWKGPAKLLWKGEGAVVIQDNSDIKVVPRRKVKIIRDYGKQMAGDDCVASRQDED

Row | Structure (SMILES) | IC50 [1] | IC95 [2] [nM] | CIC95 [2] [µM] | IC50 [3] [nM]
1 | O=C(O)C(=O)CC(=O)c1csc(Cc2ccccc2)c1 | 160 nM and 100 nM | 2500 | – | –
2 | O=C(O)C(=O)CC(=O)c1cccc(Cc2ccc(Cl)cc2)c1 | 1000 nM and 500 nM | 25000 | – | –
3 | O=C(O)C(=O)CC(=O)c1cccc(Cc2cccc(F)c2)c1 | 250 nM | 2080 | – | –
4 | O=C(O)C(=O)CC(=O)c1cccc(Cc2ccccc2F)c1 | < 100 nM | 520 | – | –
5 | O=C(O)C(=O)CC(=O)c1cccc(Cc2cccc(Cl)c2)c1 | < 100 nM | 940 | – | –
6 | COc1ccc(Cc2ccccc2)cc1C(=O)CC(=O)C(=O)O | < 100 nM | 620 | – | –
7 | O=C(O)C(=O)CC(=O)c1ccn(Cc2ccccc2)c1 | 500 nM and 600 nM | 3000 | – | –
8 | COc1ccc(C(=O)CC(=O)C(=O)O)cc1Cc1ccccc1 | 150 nM | 1830 | – | –
9 | O=C(O)C(=O)CC(=O)c1cccc(Cc2ccc(F)cc2)c1 | < 100 nM | 690 | – | –
10 | O=C(O)C(=O)CC(=O)c1ccccc1Cc1ccccc1 | 5670 nM | > 50000 | – | –
11 | COc1cc(Cc2ccccc2)cc(C(=O)CC(=O)C(=O)O)c1 | 140 nM | 2080 | – | –
12 | CCOc1ccc(Cc2ccccc2)cc1C(=O)CC(=O)C(=O)O | < 100 nM | 150 | 0.25 | –
13 | O=C(O)C(=O)CC(=O)c1cccc(Cc2ccccc2)c1 | < 100 nM | 1110 | – | –
14 | O=C(O)C(=O)CC(=O)c1cccn1Cc1ccccc1 | 220 nM | 41600 | – | –
15 | CC(C)Oc1ccc(Cc2ccccc2)cc1C(=O)CC(=O)C(=O)O | – | 100 | – | < 100
16 | O=C(O)C(=O)CC(=O)c1cccc(Cc2ccccc2Cl)c1 | < 100 nM | 620 | – | –
17 | O=C(O)C(=O)CC(=O)c1ccc(Cc2ccccc2)s1 | 500 nM | 12500 | – | –
18 | O=C(O)C(=O)CC(=O)c1ccsc1Cc1ccccc1 | 180 nM | 25000 | – | –
19 | O=C(O)C(=O)CC(=O)c1cccn1Cc1ccc(F)cc1 | – | 9600 | – | –
20 | CC(C)(C)NC(=O)[C@@H]1CN(Cc2cccnc2)CCN1C[C@@H](O)C[C@@H](Cc1ccccc1)C(=O)N[C@H]1c2ccccc2C[C@H]1O [INDINAVIR] | – | 55 | – | –
